# Test results as given in patent US20100056622A1, “Methods of Using Ramelteon to Treat Patients Suffering from a Variety of Neurodegenerative Diseases” (priority 2008, published 2010).
# Key:
# [1] = system: patient with Probable Parkinson's Disease Dementia; assay: Case report Example 2: ramelteon in a patient with Probable Parkinson's Disease Dementia (person); type: in vivo, human; conditions: after 2 weeks
# Procedure: A person with a 10 year history of Probable Parkinson's Disease Dementia was treated with ramelteon as follows. The patient presented for treatment was experiencing dementia EDS, REM behavior disorder (i.e., RBD, manifest in acting out their dreams while asleep), and symptoms of Parkinson's disease (e.g., bradykinesia, rigidity, resting tremor, and postural instability). […] After 2 weeks of treatment with ramelteon, 8 mg each night at bedtime, scores had improved on the ESS from 19 to 16, DRS-2 (DRS-2 Conceptualization score) improved from 35 to 38, Memory from 24 to 25, Total from 138 to 141, and Trails (Trails B 68 to 60, Trails B-Trails A 36 to 28). Thus, treatment with ramelteon led to demonstrable improvement in excessive daytime sleepiness, concept formation (i.e., similitudes and differences), memory (i.e., spontaneous recall, factual knowledge, and recognition), overall cognition, and measures of executive function.
# [2] = system: patient with Probable Parkinson's Disease Dementia; assay: Case report Example 3: ramelteon in a patient with Parkinson Disease and Probable Parkinson's Disease Dementia (person); type: in vivo, human; conditions: 10 weeks
# Procedure: A person with an 18 year history of Parkinson Disease with subsequent development of Probable Parkinson's Disease Dementia was treated with ramelteon. The patient presented was experiencing dementia (i.e., memory loss, inattention, and dysexecutive syndrome), initial and interval insomnia, and typical features of Parkinson's disease (i.e., bradykinesia, rigidity, resting tremor, and postural instability). The patient was started on ramelteon, 8 mg each night at bedtime, and was seen again 10 weeks later. DRS-2 Initiation (i.e., categorical naming reflecting temporal lobe function) improved from a score of 31 to 34, Controlled Oral Word Association Test S Subtest (i.e., naming reflecting frontal lobe function) from 14 to 17, CLOX 1 (i.e., reflecting executive function) from 6 to 8, and ADCS-ADL disability (i.e., reflecting ability to perform activities of daily living) from 43 to 47. Thus, treatment with ramelteon was associated with improvements in temporal and frontal lobe—related naming, executive function, and overall ability to cognitively function.
# [3] = system: mouse cerebellar granule cells; conditions: cited from earlier work
# [4] = target: T1, melatonin-2 receptor (Homo sapiens, UniProt P49286); conditions: cited from earlier work
# T1 sequence (P49286 1-362): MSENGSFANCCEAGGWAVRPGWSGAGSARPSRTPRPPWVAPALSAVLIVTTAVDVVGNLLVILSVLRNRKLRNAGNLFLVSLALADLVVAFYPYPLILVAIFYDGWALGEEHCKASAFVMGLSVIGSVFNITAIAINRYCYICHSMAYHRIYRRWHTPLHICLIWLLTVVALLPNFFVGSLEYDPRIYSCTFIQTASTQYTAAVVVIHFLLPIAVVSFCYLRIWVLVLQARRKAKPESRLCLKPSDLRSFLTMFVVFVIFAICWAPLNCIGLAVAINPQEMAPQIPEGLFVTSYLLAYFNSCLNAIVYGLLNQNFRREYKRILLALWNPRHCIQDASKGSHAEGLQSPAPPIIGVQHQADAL
# [5] = system: patient with Probable Dementia with Lewy Bodies; assay: Case report Example 1: ramelteon in a patient with Probable Dementia with Lewy Bodies; type: in vivo, human; conditions: 2 week follow-up
# Procedure: A person with a 4 year history of Probable Dementia with Lewy Bodies was treated with ramelteon as follows. The patient presented for treatment was experiencing poor sleep (i.e., interval insomnia with only 3-4 hours of sleep at night), fatigue, weight loss, poor concentration, anhedonia, irritability, social withdrawal, but no depressive mood or depressive cognitions. The patient would nap for an hour in the afternoons, consistent with Excessive Daytime Somnolence (EDS), nocturnal insomnia, or dopamine agonist therapy. They admitted to some anxiety daily in the afternoons lasting up to an hour, but had no somatic symptoms with this. Confusion was mild, but occurred once daily, and they had hallucinated only once, 6 weeks previously. There was significant nocturnal incontinence associated with the insomnia, with 4 or more episodes per night. The Neuropsychiatric Inventory Questionnaire (NPI-Q) was administered with the result being a score of 11 (delusions 1, agitation 2, irritability 1, nighttime behaviors 6, appetite 1). The […] al. Apathy Scale was also administered with the result being a score of 31. Ramelteon was administered beginning at 8 mg at bedtime and increased after 3 days to 16 mg by mouth each night at bedtime. At a 2 week follow-up, the patient began sleeping 7 hours each night, with only 2 episodes of incontinence at night.
# [6] = system: liver function after hemorrhagic shock and reperfusion; conditions: rats; cited from earlier work
# [7] = target: melatonin-1 receptor (Homo sapiens, UniProt P48039); conditions: cited from earlier work
# melatonin-1 receptor, sequence (P48039 whole entry): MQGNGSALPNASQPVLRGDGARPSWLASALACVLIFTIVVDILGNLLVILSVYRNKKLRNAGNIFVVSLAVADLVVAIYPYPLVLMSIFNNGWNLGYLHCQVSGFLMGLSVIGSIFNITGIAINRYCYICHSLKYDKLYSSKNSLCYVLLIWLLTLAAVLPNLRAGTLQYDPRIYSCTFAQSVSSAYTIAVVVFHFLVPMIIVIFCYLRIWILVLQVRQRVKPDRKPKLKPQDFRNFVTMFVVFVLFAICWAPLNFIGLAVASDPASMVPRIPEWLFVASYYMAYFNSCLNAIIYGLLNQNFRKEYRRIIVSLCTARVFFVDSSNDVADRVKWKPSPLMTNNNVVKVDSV
smiles,measurement,setting,value
"CCC(=O)NCC[C@@H]1CCc2ccc3c(c21)CCO3 [ramelteon, (S)—N-[2-(1,6,7,8-tetrahydro-2H-indeno-[5,4-b]furan-8-yl)ethyl]propionamide]",DRS-2 Memory score,"[1]; 8 mg at bedtime, before treatment 24",25
same,DRS-2 Conceptualization score,"[1]; 8 mg at bedtime, before treatment 35",38
same,Trails B-Trails A,"[1]; 8 mg at bedtime, before treatment 36",28
same,Trails B,"[1]; 8 mg at bedtime, before treatment 68",60
same,DRS-2 Total score,"[1]; 8 mg at bedtime, before treatment 138",141
same,Epworth Sleepiness Scale (ESS) score,"[1]; 8 mg each night at bedtime, before treatment 19",16
same,CLOX 1,"[2]; 8 mg at bedtime, before treatment 6",8
same,Controlled Oral Word Association Test S Subtest,"[2]; 8 mg at bedtime, before treatment 14",17
same,ADCS-ADL activities of daily living score,"[2]; 8 mg at bedtime, before treatment 43",47
same,DRS-2 Initiation score,"[2]; 8 mg each night at bedtime, before treatment 31",34
same,concentrations of BDNF in neurons,[3],increased concentrations of BDNF in neurons
same,agonist potency relative to melatonin,[4],more potent at these sites than melatonin itself
same,MMSE scores,[5],did not show a change
same,afternoon anxiety,[5],no longer of concern
same,anhedonia,[5],absent
same,appetite,[5],improved
same,"confusional episodes, intensity",[5],reduced in intensity
same,hallucinations,[5],continued in remission
same,irritability,[5],markedly better
same,social withdrawal,[5],absent
same,sleep each night,"[5]; 8 mg then 16 mg by mouth at bedtime, before treatment 3-4 hours",7 h
same,NPI-Q appetite,[5]; before treatment 1,1
same,NPI-Q delusions,[5]; before treatment 1,0
same,NPI-Q agitation,[5]; before treatment 2,0
same,episodes of incontinence at night,[5]; before treatment 4 or more episodes per night,2 episodes
same,NPI-Q nighttime behaviors,[5]; before treatment 6,1
same,NPI-Q score (total),[5]; before treatment 11,2
same,Apathy Scale (Starkstein et al.) score,[5]; before treatment 31,37
same,"confusional episodes, frequency",[5]; before treatment once daily,half as frequent
same,recovery of the liver after reperfusion,[6],improved recovery of the liver after reperfusion
same,agonist potency relative to melatonin,[7],more potent at these sites than melatonin itself
